Holding throughout (assay): relative viability (nuclei count vs DMSO), 5 days (fraction); higher = more cells survive
Compound in the assay “VE-821 + OSI-027”: CS(=O)(=O)c1ccc(-c2cnc(N)c(C(=O)Nc3ccccc3)n2)cc1 [VE-821] + COc1cccc2cc(-c3nc([C@H]4CC[C@H](C(=O)O)CC4)n4ncnc(N)c34)[nH]c12 [OSI-027] (partner 0.5 µM)
The gist of the method:
(§1)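 Each reported value is a median over duplicate plates. It expresses relative viability: treated-well nuclei count divided by vehicle-well nuclei count. Lung cancer cell lines in 1536-well plates were dosed by pin tool a day after seeding, alone with one drug or with a fixed anchor-drug dose plus five library-drug doses (not always all listed) in √10 steps, and nuclei were counted after 5 days.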

Compound in the assay “Vismodegib + Foretinib”: CS(=O)(=O)c1ccc(C(=O)Nc2ccc(Cl)c(-c3ccccn3)c2)c(Cl)c1 [Vismodegib] + COc1cc2c(Oc3ccc(NC(=O)C4(C(=O)Nc5ccc(F)cc5)CC4)cc3F)ccnc2cc1OCCCN1CCOCC1 [Foretinib] (partner 0.25 µM)
The gist of the method: as §1

Compound in the assay “Vismodegib + Pictilisib”: CS(=O)(=O)c1ccc(C(=O)Nc2ccc(Cl)c(-c3ccccn3)c2)c(Cl)c1 [Vismodegib] + CS(=O)(=O)N1CCN(Cc2cc3nc(-c4cccc5[nH]ncc45)nc(N4CCOCC4)c3s2)CC1 [Pictilisib] (partner 1 µM)
In short, it runs like this: as §1

Compound in the assay “Ruxolitinib + Foretinib”: N#CC[C@H](C1CCCC1)n1cc(-c2ncnc3[nH]ccc23)cn1 [Ruxolitinib] + COc1cc2c(Oc3ccc(NC(=O)C4(C(=O)Nc5ccc(F)cc5)CC4)cc3F)ccnc2cc1OCCCN1CCOCC1 [Foretinib] (partner 0.25 µM)
The gist of the method: as §1

Consider one cell line from the supplement of paper PMC10307832.

Turning to UMC-11, the relative viability stood at 0.507 with VE-821 + OSI-027 (first compound 0.08 µM); 0.436 with VE-821 + OSI-027 (first compound 0.253 µM); 0.508 with VE-821 + OSI-027 (first compound 0.8 µM); 0.477 with VE-821 + OSI-027 (first compound 2.53 µM); 0.325 with VE-821 + OSI-027 (first compound 8 µM); 0.996 with Vismodegib + Foretinib (first compound 0.08 µM). Besides, the relative viability with Vismodegib + Foretinib (first compound 0.253 µM) turned out to be 0.961; with Vismodegib + Foretinib (first compound 0.8 µM), 1.07; with Vismodegib + Foretinib (first compound 2.53 µM), 0.923; in the assay with Vismodegib + Foretinib (first compound 8 µM), 1.04; with Vismodegib + Pictilisib (first compound 0.08 µM) it was 0.727; with Vismodegib + Pictilisib (first compound 0.253 µM), 0.703. Further, the relative viability in the assay with Vismodegib + Pictilisib (first compound 0.8 µM) stood at 0.738; in the assay with Vismodegib + Pictilisib (first compound 2.53 µM), 0.75; with Vismodegib + Pictilisib (first compound 8 µM), 0.271; with Ruxolitinib + Foretinib (first compound 0.08 µM), 1.05; with Ruxolitinib + Foretinib (first compound 0.253 µM) it was 1.07; in the assay with Ruxolitinib + Foretinib (first compound 0.8 µM), 1.28. Further, the relative viability with Ruxolitinib + Foretinib (first compound 2.53 µM) amounted to 1.07; in the assay with Ruxolitinib + Foretinib (first compound 8 µM), 1.02.
